# Test results published in patent EP2739618B1, “QUINAZOLINE COMPOUNDS AS SERINE/THREONINE KINASE INHIBITORS” (Array Biopharma, Inc., priority 2011, dated 2013).
# Target: T1, human ERK-2 (Mitogen Activated Kinase 1) (Homo sapiens, UniProt P28482)
# T1 construct: N-terminal 6-His fusion protein in E. coli and corresponding to aa 8-360; 6-His (N); made in house; host or cells: E. coli
# Assay: ERK-2 Enzymatic Assay
# Format: biochemical
# Details: TABLE I; 5nM ERK-2 enzyme, 25µM ATP, S/T17 peptide substrate; single assay or mean of multiple assays
# Description: Compounds were tested in an enzymatic assay using human ERK-2 (Mitogen Activated Kinase 1), recombinantly expressed as an N-terminal 6-His fusion protein in E. coli and corresponding to aa 8-360. The substrate used was the fluorescent Omnia peptide S/T17 (Invitrogen of Carlsbad, CA; Cat. KNZ1171C). Test compounds were diluted in DMSO in 3-fold serial dilutions at 100x final concentrations. […] The assay was run at ambient temperature in a white 384-well polypropylene plate (Nunc, Inc of Naperville, IL; Cat. 267462) collecting data every 50 seconds for approximately 30 minutes on an Envision plate reader (PerkinElmer, Inc. of Waltham, MA); Excitation 340 nm/Emission 495 nm. The data collected from each well was fit to a straight line and the resulting rates were used to calculate percent of control. Percent of control was plotted against compound concentration and IC50 values were determined using a four-parameter fit. Representative data is in TABLE I and TABLE II. The reported IC50 may be from a single assay or the mean of multiple assays.
# T1 sequence (P28482 8-360): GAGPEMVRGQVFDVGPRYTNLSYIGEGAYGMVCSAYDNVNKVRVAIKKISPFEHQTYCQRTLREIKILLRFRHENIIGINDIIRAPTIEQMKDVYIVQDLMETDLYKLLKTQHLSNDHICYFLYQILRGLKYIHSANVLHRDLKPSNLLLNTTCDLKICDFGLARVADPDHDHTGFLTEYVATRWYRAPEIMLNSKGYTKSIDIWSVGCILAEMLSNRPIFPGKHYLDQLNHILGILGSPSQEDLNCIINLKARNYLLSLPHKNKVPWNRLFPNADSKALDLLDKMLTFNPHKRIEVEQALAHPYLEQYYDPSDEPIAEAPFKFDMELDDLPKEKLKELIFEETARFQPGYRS
row,Structure (SMILES),IC50 [nM]
1,"Cn1cc([C@@H](NC(=O)c2ccc3cnc(N[C@@H]4CCOC[C@H]4F)nc3c2)c2ccc(Cl)c(F)c2)cn1 [Compound I-30, 2-((3S,4R)-3-fluoro-tetrahydropyran-4-ylamino)-quinazoline-7-carboxylic acid [(S)-(4-chloro-3-fluoro-phenyl)-(1-methyl-1H-pyrazol-4-yl)-methyl]-amide]",2.1
2,"COc1ccc([C@H](NC(=O)c2ccc3cnc(NC4CCOCC4)nc3c2)[C@H]2C[C@H](F)CN2)cc1F [Compound I-31, 2-(tetrahydropyran-4-ylamino)-quinazoline-7-carboxylic acid [(S)-(3-fluoro-4-methoxy-phenyl)-((2R,4S)-4-fluoro-pyrrolidin-2-yl)-methyl]-amide]",1.7
3,"COc1ccc([C@H](NC(=O)c2ccc3cnc(NC4CCOCC4)nc3c2)c2cnn(C)c2)cc1F [Compound I-32, 2-(tetrahydropyran-4-ylamino)-quinazoline-7-carboxylic acid [(S)-(3-fluoro-4-methoxy-phenyl)-(1-methyl-1H-pyrazol-4-yl)-methyl]-amide]",1.1
4,"COc1ccc([C@H](NC(=O)c2cc(F)c3cnc(NC4CCOCC4)nc3c2)c2cnn(C)c2)cc1F [Compound I-33, 5-fluoro-2-(tetrahydropyran-4-ylamino)-quinazoline-7-carboxylic acid [(S)-(3-fluoro-4-methoxy-phenyl)-(1-methyl-1H-pyrazol-4-yl)-methyl] -amide]",1.5
5,O=C(N[C@@H](c1ccc(F)c(Cl)c1)[C@]1(F)CCNC1)c1ccc2cnc(NC3CCOCC3)nc2c1 [Compound I-36],1.6
6,O=C(N[C@H](c1ccc(F)c(Cl)c1)[C@@]1(F)CCNC1)c1ccc2cnc(NC3CCOCC3)nc2c1 [Compound I-37],73.6
7,O=C(N[C@H](c1ccc(F)c(Cl)c1)[C@]1(F)CCNC1)c1ccc2cnc(NC3CCOCC3)nc2c1 [Compound I-38],65.4
8,"Cn1cc([C@@H](NC(=O)c2ccc3cnc(N[C@H]4CCO[C@H](CO)C4)nc3c2)c2ccc(Cl)c(F)c2)cn1 [Compound I-42, 2-((2S,4S)-2-hydroxymethyl-tetrahydro-pyran-4-ylamino)-quinazoline-7-carboxylic acid [(S)-(4-chloro-3-fluoro-phenyl)-(1-methyl-1H-pyrazol-4-yl)-methyl]-amide]",7.2
9,"COc1ccc([C@H](NC(=O)c2ccc3cnc(NC4CCOCC4)nc3c2)c2cnn(C)c2)cc1Cl [Compound I-44, 2-(tetrahydro-pyran-4-ylamino)-quinazoline-7-carboxylic acid [(S)-(3-chloro-4-methoxy-phenyl)-(1-methyl-1H-pyrazol-4-yl)-methyl]-amide]",1
10,"COc1ccc([C@H](NC(=O)c2ccc3cnc(N[C@H]4CCO[C@H](CO)C4)nc3c2)c2cnn(C)c2)cc1F [Compound I-46, N-((S)-(3-fluoro-4-methoxyphenyl)(1-methyl-1H-pyrazol-4-yl)methyl)-2-((2S,4S)-2-(hydroxymethyl)tetrahydro-2H-pyran-4-ylamino)quinazoline-7-carboxamide]",4.2
11,"COc1ccc([C@@H](NC(=O)c2ccc3cnc(NC4CCOCC4)nc3c2)c2cnn(C)c2)cc1C#N [Compound I-49, (R)-N-((3-cyano-4-methoxyphenyl)(1-methyl-1H-pyrazol-4-yl)methyl)-2-(tetrahydro-2H-pyran-4-ylamino)quinazoline-7-carboxamide]",141
12,"COc1ccc([C@H](NC(=O)c2cc(F)c3cnc(NC4CCOCC4)nc3c2)c2cnn(C)n2)cc1F [Compound I-51, (S)-5-Fluoro-N-((3-fluoro-4-methoxyphenyl)(2-methyl-2H-1,2,3-triazol-4-yl)methyl)-2-(tetrahydro-2H-pyran-4-ylamino)quinazoline-7-carboxamide]",2.8
13,"COc1ccc([C@H](NC(=O)c2cc(F)c3cnc(N[C@H]4CCOC[C@H]4F)nc3c2)c2cnn(C)c2)cc1F [Compound I-52, 5-fluoro-N-((S)-(3-fluoro-4-methoxyphenyl)(1-methyl-1H-pyrazol-4-yl)methyl)-2-((3S,4S)-3-fluorotetrahydro-2H-pyran-4-ylamino)quinazoline-7-carboxamide]",2.6
14,"COc1ccc(C(NC(=O)c2cc(F)c3cnc(NC4CCOCC4)nc3c2)c2cnn(C)n2)cc1F (stereo not shown) [Compound I-53, 5-Fluoro-2-(tetrahydro-pyran-4-ylamino)-quinazoline-7-carboxylic acid [(3-fluoro-4-methoxy-phenyl)-(2-methyl-2H-[1,2,3]triazol-4-yl)-methyl]-amide]",6.8
15,"COc1ccc([C@@H](NC(=O)c2cc(F)c3cnc(NC4CCOCC4)nc3c2)c2cnn(C)n2)cc1F [Compound I-54, 5-Fluoro-2-(tetrahydro-pyran-4-ylamino)-quinazoline-7-carboxylic acid [(R)-(3-fluoro-4-methoxy-phenyl)-(2-methyl-2H-[1,2,3]triazol-4-yl)-methyl]-amide]",31
16,"Cn1cc([C@@H](NC(=O)c2ccc3cnc(NC4CCOCC4)nc3c2)c2ccc(F)c(Cl)c2)cn1 [Compound I-55, 2-(Tetrahydro-pyran-4-ylamino)-quinazoline-7-carboxylic acid [(S)-(3-chloro-4-fluoro-phenyl)-(1-methyl-1H-pyrazol-4-yl)-methyl]-amide]",2.7
17,"COc1ccc([C@H](NC(=O)c2ccc3cnc(NC4CCOCC4)nc3c2)c2cnn(C)c2)cc1C#N [Compound I-56, 2-(Tetrahydro-pyran-4-ylamino)-quinazoline-7-carboxylic acid [(3-cyano-4-methoxy-phenyl)-(1-methyl-1H-pyrazol-4-yl)-methyl]-amide]",3.5
18,"COc1ccc([C@H](NC(=O)c2ccc3cnc(N[C@H]4CCO[C@H](COC(C)=O)C4)nc3c2)c2cnn(C)c2)cc1F [Compound I-57, Acetic acid (2S,4S)-4-(7-{[(S)-(3-fluoro-4-methoxy-phenyl)-(1-methyl-1H-pyrazol-4-yl)-methyl]-carbamoyl}-quinazolin-2-ylamino)-tetrahydro-pyran-2-ylmethyl ester]",24
19,"COCCNc1ncc2c(F)cc(C(=O)N[C@@H](c3ccc(OC)c(F)c3)c3cnn(C)c3)cc2n1 [Compound I-58, 5-Fluoro-2-(2-methoxy-ethylamino)-quinazoline-7-carboxylic acid [(S)-(3-fluoro-4-methoxy-phenyl)-(1-methyl-1H-pyrazol-4-yl)-methyl]-amide]",20
20,"COc1ccc([C@H](NC(=O)c2cc(F)c3cnc(NCCCF)nc3c2)c2cnn(C)c2)cc1F [Compound I-59, 5-Fluoro-2-(3-fluoro-propylamino)-quinazoline-7-carboxylic acid [(S)-(3-fluoro-4-methoxy-phenyl)-(1-methyl-1H-pyrazol-4-yl)-methyl]-amide]",15
21,"COc1ccc([C@H](NC(=O)c2cc(F)c3cnc(NCC4COC4)nc3c2)c2cnn(C)c2)cc1F [Compound I-63, 5-Fluoro-2-[(oxetan-3-ylmethyl)-amino]-quinazoline-7-carboxylic acid [(S)-(3-fluoro-4-methoxy-phenyl)-(1-methyl-1H-pyrazol-4-yl)-methyl]-amide]",4
22,"Cn1cc([C@@H](NC(=O)c2cc(F)c3cnc(NC4CCOCC4)nc3c2)c2ccc(C#N)c(Cl)c2)cn1 [Compound I-65, 5-Fluoro-2-(tetrahydro-pyran-4-ylamino)-quinazoline-7-carboxylic acid [(S)-(3-chloro-4-cyano-phenyl)-(1-methyl-1H-pyrazol-4-yl)-methyl]-amide]",0.6
23,"COc1ccc([C@H](NC(=O)c2cc(F)c3cnc(NC4CCOCC4)nc3c2)c2cnn(C)c2)cc1Cl [Compound I-66, 5-Fluoro-2-(tetrahydro-pyran-4-ylamino)-quinazoline-7-carboxylic acid [(S)-(3-chloro-4-methoxy-phenyl)-(1-methyl-1H-pyrazol-4-yl)-methyl]-amide]",0.6
24,Cn1cc([C@@H](NC(=O)c2cc(F)c3cnc(NC4CCOCC4)nc3c2)c2cccc(F)c2)cn1 [Compound I-68],1.3
25,COc1ccc([C@H](NC(=O)c2cc(F)c3cnc(N[C@@H]4CCOC[C@@H]4F)nc3c2)c2cnn(C)c2)cc1F [Compound I-70],4

# Same assay, conditions: TABLE II; 5nM ERK-2 enzyme, 25µM ATP, S/T17 peptide substrate; single assay or mean of multiple assays
row,Structure (SMILES),IC50 [nM]
1,COc1ccc([C@H](NC(=O)c2ccc3cnc(NC4CS(=O)(=O)C4)nc3c2)c2cnn(C)c2)cc1F [II-3],52.8
2,COc1ccc([C@@H](NC(=O)c2cc(F)c3cnc(NC4CCOCC4)nc3c2)c2cnn(C)c2)cc1F [II-4],15.7
3,COc1ccc([C@H](NC(=O)c2ccc3cnc(N[C@H]4C[C@@H](O)C4)nc3c2)c2cnn(C)c2)cc1F [II-8],4.2
4,COc1ccc([C@H](NC(=O)c2ccc3cnc(N[C@H]4C[C@H](O)C4)nc3c2)c2cnn(C)c2)cc1F [II-9],3.8
5,COc1ccc([C@H](NC(=O)c2ccc3cnc(NC4CC(OC)C4)nc3c2)c2cnn(C)c2)cc1F (stereo partly shown) [II-10],13.8
6,COc1ccc([C@H](NC(=O)c2cc(F)c3cnc(NCCC#N)nc3c2)c2cnn(C)c2)cc1F [II-11],13.9
7,Cn1cc([C@@H](NC(=O)c2cc(F)c3cnc(NC4CCOCC4)nc3c2)c2cccc(F)c2)cn1 [II-12],1.2
8,COc1ccc([C@H](NC(=O)c2cc(F)c3cnc(NC4CCOCC4)nc3c2)c2cnn(C)c2)nc1 [II-14],153
9,COc1ccc([C@H](NC(=O)c2cc(F)c3cnc(N[C@@H]4CCOC[C@@H]4F)nc3c2)c2cnn(C)c2)cc1F [II-15],4.3
